Tested on: bone cells containing osteoclast cells
Test: Pit formation assay: inhibition of osteolysis (absorption pits on ivory slices)
Assay type: cell-based, ICR mice
Conditions: for inhibition at 10 µM: Mus musculus, Osteoclast, read-out: Ratio of inhibition (%)
Protocol: ICR mice 11-12 days old (purchased from Charles River Japan) were euthanized by anesthesia with ether and immediately immersed in 70% ethanol for disinfection. By the use of ophthalmologist scissors and pincers sterilized in advance with ethanol, femur and tibia were excised from the sacrificed mice and chopped into small pieces in an α-MEM culture medium (purchased from Flow Laboratories Corp.). containing 5% FBS (purchased from Irvine Scientific Corp.), 100 U/ml penicillin and 100 μg/ml streptomycin. The supernatant formed consequently was recovered by pipeting, cleaned with the culture broth, and suspended in a 5% FBS α-MEM culture broth to obtain bone cells containing osteoclast cells. The supernatant of a bone cell-floating liquid formed after 3 minutes' standing of the bone cells at rest was recovered and passed through a mesh (cell strainer, 70 μm, purchased from Falcon Corp.). The filtrate was adjusted to a cell concentration of 1×10^7 /ml and used for the pit formation assay.
An ivory piece was cut into slices, 150 μm in thickness, by the use of a precision low-speed cutting machine (purchased from Buehler Corp.). Cylindrical holes, 6 mm in diameter, were perforated in the slices by the use of a one-hole punch. The ivory slices were immersed in 70% ethanol and subjected therein to an ultrasonic cleaning treatment twice each for five minutes and washed three times with a sterilized PBS and twice with the culture medium. The ivory slices were set in place on a 96-hole culture plate (purchased from Falcon Corp.). The perforated ivory slices on the culture plate, with a culture broth containing a given compound of the present invention prepared in a concentration of 2×10^-5 M added in a fixed volume of 100 μl (final medicine concentration 1×10^-5 M) to each of the holes and a culture broth containing prepared bone cells in a concentration of 1×10^7 /ml placed in each of the holes, were cultured for three days in a 10% CO2 incubator at 37° C. After the culture, the ivory slices were placed in an aqueous 2 N sodium hydroxide and the cells on the slices were removed by the use of a rubber spatula. The ivory slices were washed with water and methanol. The absorption pits formed in the ivory slices were dyed with Coomassie Brilliant Blue and were counted under a microscope. Though the numbers of absorption pits were naturally found to disperse among test lots, depending on the ratios of varying specie s of cells in the bone cell suspensions and the lots of animals used, satisfactorily uniform test results were found in one and the same test lot. The ratio of inhibition of osteolysis was calculated on the 100% scale, in which 0% stands for the number of absorption pits found in the culture broth in the presence of rPTH (1×10^-8 M) and in the absence of a medicine and 100% for total absence of absorption pit.
The test described above was performed in a total of ten runs, Tests 1-10.
In the columns titled "Added medicine No." found in Table 2 and Table 3, the symbol (-) denotes a control involving no addition of medicine and the numerical No. denotes the No. of the compound mentioned above.

[1] = 72 h, compound 10^-5 M, 0% = pits with rPTH (1×10^-8 M) without medicine, 100% = no absorption pit

| Molecule | No. of absorption pits (Mean ± SD) (72 h, 10 µM) | inhibition at 10 µM [1] | No. of absorption pits (Mean ± SD) (compound 10^-5 M, 3 days culture at 37° C., 10% CO2, control per test run given as (-)) | Ratio of inhibition (%) (compound 10^-5 M, 0% = pits with rPTH (1×10^-8 M) without medicine, 100% = no absorption pit, 4320 min, 10 µM) |
| --- | --- | --- | --- | --- |
| CC(C)=CCOc1cc(C)c(C(=O)CC(C)C)c(O)c1 [Compound 48, {2-hydroxy-6-methyl-4-(3-methyl-2-butenyloxy)phenyl} (2-methylpropyl) ketone] | 85.2 ± 7.5 | 57.8% | – | – |
| CC(C)=CCC1=C(O)C(O)(CC=C(C)C)C(=O)C(C(=O)C(C)C)=C1O (centres unmarked) [Compound 29, 2,4-bis(3-methyl-2-butenyl)-6-(2-methyl-1-oxopropyl)-2,3,5-trihydroxycyclohexa-3,5-dienone] | 20.3 ± 2.1 | 79.5% | – | – |
| CC(C)=CCc1c(O)cc(O)c(C(=O)Cc2ccccc2)c1O [Compound 42, {3-(3-methyl-2-butenyl)-2,4,6-trihydroxyphenyl} (phenylmethyl) ketone] | 31.7 ± 3.6 | 74.7% | – | – |
| CC(C)=CCCC(C)=CCC1=C(O)C(CC=C(C)CCC=C(C)C)(CC=C(C)CCC=C(C)C)C(=O)C(C(=O)Cc2ccccc2)=C1O (centres unmarked) [Compound 44, 3,5-dihydroxy-6-(phenylacetyl)-2,2,4-tris(3,7-dimethyl-2,6-octadienyl)cyclohexa-3,5-dienone] | 7.7 ± 2.0 | 96.6% | – | – |
| CC(C)CCc1c(O)c(CCC(C)C)c(O)c(C(=O)CC(C)C)c1O [Compound 37, {3,5-bis(3-methylbutyl)-2,4,6-trihydroxyphenyl} (2-methylpropyl) ketone] | 14.4 ± 4.9 | 91.1% | – | – |
| CC(C)=CCc1c(O)c(O)cc(C(=O)CC(C)C)c1O [Compound 26, {3-(3-methyl-2-butenyl)-2,4,5-trihydroxyphenyl} (2-methylpropyl) ketone] | 29.3 ± 4.8 | 85.5% | – | – |
| CC(C)CC(=O)C1=C(O)C(Cc2ccccc2)=C(O)C(O)(Cc2ccccc2)C1=O (centres unmarked) [Compound 33, 2,4-bisbenzyl-6-(3-methyl-1-oxobutyl)-2,3,5-trihydroxycyclohexa-3,5-dienone] | 9.8 ± 1.8 | 95.1% | – | – |
| CC(C)=CCC1(CC=C(C)C)C(=O)C(C(=O)CC(C)CCCC(C)C)=C(O)C=C1O (centres unmarked) [Compound 24, 2,2-bis(3-methyl-2-butenyl)-3,5-dihydroxy-6-(3,7-dimethyl-1-oxooctyl)cyclohexa-3,5-dienone] | 39.3 ± 13.9 | 75.8% | – | – |
| CC(C)=CCc1c(O)cc(O)c(C(=O)C(C)C)c1O [Compound 14, {3-(3-methyl-2-butenyl)-2,4,6-trihydroxyphenyl} (2-propyl) ketone] | 26.0 ± 2.6 | 67.5% | – | – |
| CC(C)=CCCC(C)=CCC1(CC=C(C)CCC=C(C)C)C(=O)C(C(=O)Cc2ccccc2)=C(O)C=C1O (centres unmarked) [Compound 45, 3,5-dihydroxy-6-(phenylacetyl)-2,2-bis(3,7-dimethyl-2,6-octadienyl)cyclohexa-3,5-dienone] | 8.2 ± 1.8 | 96.4% | – | – |
| CC(C)=CCOc1c(CC=C(C)C)c(C)c(C(=O)CC(C)C)c(O)c1CC=C(C)C [Compound 51, {3,5-bis(3-methyl-2-butenyl)-2-hydroxy-6-methyl-4-(3-methyl-2-butenyloxy)phenyl} (2-methylpropyl) ketone] | 102.7 ± 6.2 | 42.8% | – | – |
| CC(=O)C1=C(O)C(CC=C(C)C)=C(O)C(O)(CC=C(C)C)C1=O (centres unmarked) [Compound 30, 2,4-bis(3-methyl-2-butenyl)-6-(1-oxoethyl)-2,3,5-trihydroxycyclohexa-3,5-dienone] | 21.4 ± 3.9 | 78.2% | – | – |
| CC(C)=CCOc1ccc(C(=O)CC(C)C)c(O)c1 [Compound 53, {2-hydroxy-4-(3-methyl-2-butenyloxy)phenyl} (2-methylpropyl) ketone] | 55.1 ± 11.1 | 67.8% | – | – |
| CC(C)=CCC1=C(O)C(CC=C(C)C)(CC=C(C)C)C(=O)C(C(=O)CC(C)CCCC(C)C)=C1O (centres unmarked) [Compound 22, 3,5-dihydroxy-6-(3,7-dimethyl-1-oxooctyl)-2,2,4-tris(3-methyl-2-butenyl)cyclohexa-3,5-dienone] | 3.5 ± 1.1 | 98.1% | – | – |
| CC(C)=CCc1c(O)cc(C)c(C(=O)CC(C)C)c1O [Compound 49, {2,4-dihydroxy-6-methyl-3-(3-methyl-2-butenyl)phenyl} (2-methylpropyl) ketone] | 44.3 ± 5.4 | 78% | – | – |
| CC(C)CC(=O)c1ccc(O)cc1O [Compound 52, (2,4-dihydroxyphenyl)(2-methylpropyl) ketone] | 94.3 ± 13.8 | 44.9% | – | – |
| O=C(Cc1ccccc1)c1c(O)cc(O)cc1O [Compound 38, (phenylmethyl) (2,4,6-trihydroxyphenyl) ketone] | 55.8 ± 7.7 | 57.9% | – | – |
| CC(C)=CCc1c(O)ccc(C(=O)CC(C)C)c1O [Compound 54, (2,4-dihydroxy-3-(3-methyl-2-butenyl)phenyl) (2-methylpropyl) ketone] | 66.5 ± 9.7 | 61.2% | – | – |
| CC(C)CC(=O)C1=C(O)C(Cc2ccccc2)=C(O)C(Cc2ccccc2)(Cc2ccccc2)C1=O [Compound 36, 2,2,4-trisbenzyl-6-(3-methyl-1-oxobutyl)-3,5-dihydroxycyclohexa-3,5-dienone] | 3.8 ± 0.9 | 98.1% | – | – |
| CC(C)=CCCC(C)=CCC1=C(O)C(CC=C(C)CCC=C(C)C)(CC=C(C)CCC=C(C)C)C(=O)C(C(=O)CC(C)C)=C1O (centres unmarked) [Compound 20, 3,5-dihydroxy-6-(3-methyl-1-oxobutyl)-2,2,4-tris(3,7-dimethyl-2,6-octadienyl)cyclohexa-3,5-dienone] | 3.0 ± 1.3 | 98.4% | – | – |
| CC(C)=CCc1c(O)c(CC=C(C)C)c(O)c(C(=O)Cc2ccccc2)c1O [Compound 39, {3,5-bis(3-methyl-2-butenyl)-2,4,6-trihydroxyphenyl} (phenylmethyl) ketone] | 49.2 ± 9.4 | 72.6% | – | – |
| CC(C)=CCCC(C)=CCc1c(O)c(CC=C(C)CCC=C(C)C)c(O)c(C(=O)Cc2ccccc2)c1O [Compound 43, {3,5-bis(3,7-dimethyl-2,6-octadienyl)-2,4,6-trihydroxyphenyl} (phenylmethyl) ketone] | 11.3 ± 2.5 | 95% | – | – |
| (2,4,5-trihydroxyphenyl) (2-methylpropyl) ketonemono(3-methyl-2-butenyl) ether [Compound 28] | – | – | 61.3 ± 5.5 | 69.6% |
| CC(C)=CCC1(CC=C(C)C)C(=O)C(C(=O)Cc2ccccc2)=C(O)C=C1O [Compound 41, 3,5-dihydroxy-6-(phenylacetyl)-2,2-bis(3-methyl-2-butenyl)cyclohexa-3,5-dienone] | 3.2 ± 0.7 | 97.4% | – | – |
| CC(C)=CCC1=C(O)C(CC=C(C)C)(CC=C(C)C)C(=O)C(C(=O)Cc2ccccc2)=C1O [Compound 40, 3,5-dihydroxy-6-(phenylacetyl)-2,2,4-tris(3-methyl-2-butenyl)-cyclohexa-3,5-dienone] | 4.9 ± 3.8 | 96.1% | – | – |
